# System: Helicoverpa zea
# Assay: Insecticidal activity against first instar larvae of Helicoverpa zea at 200 ppm administered with diet relative to control
# Format: functional
smiles,measurement,value
O=C1NCc2nc3ccccc3c(=O)n2-c2ccccc21 [SCLEROTIGENIN],Activity,42%

# Reference: ChEMBL document CHEMBL1141835, “Sclerotigenin: A new antiinsectan benzodiazepine from the sclerotia of penicillium sclerotigenum” (1999)
